Measured values taken from patent publication US11701345B2, “Car activator agents for cyclophosphamide-based treatments of cancer” (UNIVERSITY OF MARYLAND, BALTIMORE, priority 2017, dated 2023).
“Also recorded” adds a separate entry of the source.

Assays:
SU-DHL-4 cells = assay: Hepatocyte/lymphoma co-culture with CHOP: cancer cell death, viability, caspase-3; type: cell-based, human
Protocol: HPH were cultured in collagen-coated 12-well plates and pretreated with vehicle control (0.1% DMSO) or hCAR activator (1 mmol/L) for 24 hours. The wells were then separated with […] polycarbonate membrane inserts (Sigma-Aldrich). A total of 0.5×10^6 SU-DHL-4 cells suspended in supplemented Williams' Medium E were transferred into the insert chamber with a final volume of 2 mL/well. In separate coculture experiments, HPH were replaced with either WT or CAR-KO HepaRG cells. The cocultures were exposed to designated concentrations of the chemotherapy drugs in CHOP in the presence or absence of hCAR activator for various time intervals, as indicated.
(§1) Homogenate proteins from treated HPH, H9c2 or HepaRG cells were resolved on NuPAGE Novex Bis-Tris 4% to 12% gels (Life Technologies) and electrophoretically transferred onto immobilon-P polyvinylidene difluoride membranes. Membranes were incubated with specific antibodies against human CAR (Perseus Proteomics), cleaved caspase-3 (Cell Signaling Technology), or g-H2AX (Millipore), diluted 1:1,000, 1:1,000, and 1:400, respectively. b-Actin was used to normalize protein loading. Following incubation with horseradish peroxidase goat antimouse or anti-rabbit IgG antibody, membranes were developed using SuperSignal West Pico Chemiluminescent Substrate (Thermo Scientific). Western blot signals were quantified by densitometry using ImageJ software from the National Institutes of Health.
HPHs and H9c2 rat cardiomyocytes were seeded at 7.5×10^4 cells per well in 96-well plates. HPH were cultured for 24 hours before treatment with hCAR activator (1 mmol/L) or vehicle control (0.1% DMSO), followed by treatment with the chemotherapy drugs included in CHOP at a range of concentrations. Culture medium containing CHOP drugs and metabolites was exchanged between the cell types at pre-determined time points. A typical 3-[4,5-dimethylthiazol-2-yl]-2,5 diphenyl tetrazolium bromide (MTT) assay was carried out as described previously (21). Cell viability was expressed as the percentage of vehicle control (0.1% DMSO). Cocultured cells were assembled and treated as described above. The viability of the SU-DHL-4 cells was determined at selected time points with a Cellometer Auto T4 (Nexcelom Biosciences) using trypan blue exclusion.

H9c2 cells = assay: CHOP cytotoxicity in side-toxic H9c2 cells; type: cell-based, rat; conditions: FIGS. 10A-10C, 11A-11F
Protocol: as §1
HPHs and H9c2 rat cardiomyocytes were seeded at 7.5×10^4 cells per well in 96-well plates. […] Culture medium containing CHOP drugs and metabolites was exchanged between the cell types at pre-determined time points. […] Cell viability was expressed as the percentage of vehicle control (0.1% DMSO). […] The viability of the SU-DHL-4 cells was determined at selected time points with a Cellometer Auto T4 (Nexcelom Biosciences) using trypan blue exclusion.

EL4-derived xenograft = EL4-derived xenograft in hCAR transgenic mice treated with CHOP; type: in vivo, mouse; conditions: hCAR-TG mice, compared with vehicle, CITCO and CHOP controls; FIGS. 13-14
Protocol: The effects of the novel hCAR activator e.g. CITCO on the CHOP based anticancer therapy has been examined in EL4-derived xenograft hCAR transgenic mouse model (FIG. 12). The tumor volume reduction was measured to determine the effects of hCAR activator on the CHOP treatment upon xenograft tumor model in mouse.

Clc1ccc(-c2nc3sccn3c2/C=N/OCc2ccc(Cl)c(Cl)c2)cc1 [CITCO, (E)-6-(4-chlorophenyl)imidazo[2,1-b]thiazole-5-carbaldehyde O-(3,4-dichlorobenzyl) oxime]
effect on CHOP anticancer activity (cancer cell death) (SU-DHL-4 cells; hepatocyte/lymphoma co-culture, added to CHOP, FIGS. 10B-C): enhances CHOP-mediated cytoxicity; also recorded: potentiates the beneficial effects of CHOP in causing cancer cell death | Caspase-3 expression on addition to CHOP (SU-DHL-4 cells; lymphoma cells, FIGS. 11A-11F): induction of apoptosis protein caspase-3; also recorded: dose dependent response of Caspase-3 expression | effect on CHOP-mediated cytotoxicity in H9c2 cells (H9c2 cells): not H9c2 cells | effect on therapeutic effects of CHOP (tumor volume, tumor mass) (EL4-derived xenograft): potentiate the therapeutic effects of the CHOP regimen
